From PMC6273912, “Novel 5-Substituted 2-(Aylmethylthio)-4-chloro-N-(5-aryl-1,2,4-triazin-3-yl)benzenesulfonamides: Synthesis, Molecular Structure, Anticancer Activity, Apoptosis-Inducing Activity and Metabolic Stability” (Molecules, 2016)

Key:
HeLa [1] = experiment: Cell morphology (light microscope), HeLa; assay type: cell-based, human; conditions: 25–100 μM, 24 h
Experimental: (§1) To evaluate the changes in morphology of the treated cells, they were incubated with increasing concentrations of 37 (HCT-116, HeLa) or 46 (MCF-7) for 24 h and observed using light microscope.
(§2) The HCT-116, HeLa and MCF-7cells were seeded on 24-well plates (5 × 10^4/per well) in 300 μL of medium and incubated with 37 (HCT-116, HeLa) or 46 (MCF-7) for 24 h. Cells incubated with increasing concentrations of compounds (25–100 μM) were observed after 24 h using light microscope Axiovert 200 (Zeiss, Oberkochen, Germany).

HCT-116 [2] = experiment: Cell morphology (light microscope), HCT-116; assay type: cell-based, human; conditions: HCT-116, 25–100 μM, 24 h
Experimental: as §1, §2

HCT-116 [3] = experiment: Cell cycle analysis (sub-G1, DAPI flow cytometry), HCT-116; assay type: cell-based, human; conditions: HCT-116, 24 h, dose dependent increase, mean ± SD
Experimental: (§3) One of the most common mechanisms in anticancer drug treatment is changes in cell cycle, which can be measured by DNA content. Cell cycle distribution in HCT-116, HeLa and MCF-7 cells was examined to determine cycle arrest and/or presence of sub-G1 after treatment with compounds 37 and 46. […] Cell populations data are expressed as the mean ± SD of at least three independent experiments.
(§4) Following treatment, cells were fixed in cold 70% ethanol for 30 min. Fixed cells were stained for 15 min in buffer containing 500 μg/mL RNAse A (EURx, Gdansk, Poland) and 2.5 μg/mL of DAPI (Sigma-Aldrich, Munich, Germany). The fluorescence of DAPI was measured at 440 ± 40 nm with a flow cytometer (LSR II, BD Biosciences, Mountain View, CA, USA). Each experiment was performed at least in triplicate. Data were analyzed off-line using the BD FACSDiva (BD Biosciences).

HeLa (cervical cancer) = experiment: MTT cell viability assay, HeLa; assay type: cell-based, human; conditions: 72 h of incubation, mean ± SD
Experimental: (§5) All chemicals, if not stated otherwise, were obtained from Sigma-Aldrich (St. Louis, MO, USA). The MCF-7 cell line was purchased from Cell Lines Services (Eppelheim, Germany), the HeLa and HCT-116 cell lines were obtained from the Department of Microbiology, Tumor and Cell Biology, Karolinska Institute (Stockholm, Sweden). Cells were cultured in Dulbecco’s modified Eagle’s medium (DMEM) supplemented with 10% fetal bovine serum, 2 mM glutamine, 100 units/mL penicillin, and 100 μg/mL streptomycin. Cultures were maintained in a humidified atmosphere with 5% CO2 at 37 °C in an incubator (HeraCell, Heraeus, Langenselbold, Germany).
(§6) Cell viability was determined using the MTT (3-(4,5-dimethylthiazol-2-yl)-2,5-diphenyl-tetrazoliumbromide) assay. Stock solutions of the studied compounds were prepared in 100% DMSO. […] Cells were seeded in 96-well plates at a density of 5 × 10^3 cells/well and treated for 72 h with the examined compounds in the concentration range 1–100 μM (1, 10, 25, 50 and 100 μM). Following treatment, MTT (0.5 mg/mL) was added to the medium and cells were further incubated for 2 h at 37 °C. Cells were lysed with DMSO and the absorbance of the formazan solution was measured at 550 nm with a plate reader (1420 multilabel counter, Victor, Jügesheim, Germany). […] The experiment was performed in triplicate. Values are expressed as the mean ± SD of at least three independent experiments.

HeLa [4] = experiment: Cell cycle analysis (sub-G1, DAPI flow cytometry), HeLa; assay type: cell-based, human; conditions: 24 h, dose dependent increase, mean ± SD
Experimental: as §3, §4

HCT-116 [5] = experiment: Mitochondrial membrane potential (JC-1), HCT-116; assay type: cell-based, human; conditions: HCT-116, 24 h, low and moderate concentrations
Experimental: (§7) Loss of the mitochondrial membrane potential (Δψm) is one of the earliest indicators of an apoptosis. It can be detected using fluorescent dye JC-1 (5,5′,6,6′-tetrachloro-1,1′,3,3′-tetraethylbenzimidazolylcarbocyanine iodide) exited with blue laser. JC-1 spontaneously forms dimer complexes (J aggregates) with red fluorescent or remain as a monomers with green fluorescence in cells with high and low Δψm, respectively.
(§8) Half an hour before the end of 24 h-treatment 2.5 μg/mL of JC-1 (5,5′,6,6′-tetrachloro-1,1′,3,3′-tetraethylbenzimidazolylcarbocyanine iodide) was added to the cell medium. As a negative control 100 μM CCCP (carbonyl cyanide 3-chlorophenylhydrazone) was used 15 min before JC-1 treatment. Following treatment cells were twice washed with PBS and analyzed with flow cytometer (LSR II, BD Biosciences).
(§9) Green and red fluorescence were observed using FL-1 (530 ± 30 nm) and FL-2 (585 ± 42 nm) channels, respectively. Percentage of cell population in red or green fluorescence gate indicated the level of Δψm. Decreasing red fluorescence cell population indicated lower Δψm.

[6] = test system: active caspases (caspases 1 through 9) in HeLa cells; experiment: Caspase activity (FAM-VAD-FMK, flow cytometry), HeLa; assay type: cell-based, human; conditions: 100 μM, increase over control
Experimental: Caspase activation plays a central role in the execution of apoptosis and is required for the occurrence of its biochemical and morphological hallmarks, such as DNA fragmentation, formation of apoptotic bodies and chromatin condensation. The ability of the examined compounds to induce caspase activity was determined with the use of a fluorescent labeled caspase inhibitor, a carboxyfluorescein (FAM) derivative of valylalanylaspartic acid (VAD) fluoromethyl ketone (FMK).
FAM-VAD-FMK contains a target sequence recognized by active caspases (caspases 1 through 9). Binding to this sequence inhibits the enzymatic activity of caspases and allows for the determination of their activity through the direct measurement of fluorescent intensity of the bound inhibitor. […] The strongest influence on caspase activation was noticed for the HeLa cell line, where that cell population increased by 31% in the presence of 37 at a concentration of 100 μM.
Caspase activity was determined with the FLICA Apoptosis Detection Kit (Immunochemistry Technologies, Bloomington, MN, USA) according to the manufacturer’s instructions. […] The fluorescence intensity of fluorescein was determined with flow cytometry (BD FACSCalibur) and caspase activity was determined as the amount of fluorescence emitted from caspase inhibitors bound to the caspases.

HCT-116, HeLa and MCF-7 = experiment: MTT cell viability assay, all tested cell lines together; assay type: cell-based; conditions: Homo sapiens; average over HCT-116, HeLa and MCF-7; read-out: average IC50 against all tested cell lines
Experimental: as §5, §6

HeLa [7] = experiment: Mitochondrial membrane potential (JC-1), HeLa; assay type: cell-based, human; conditions: 24 h, low and moderate concentrations
Experimental: as §7, §8, §9

HCT-116 (colon cancer) = experiment: MTT cell viability assay, HCT-116; assay type: cell-based, human; conditions: 72 h of incubation, mean ± SD
Experimental: as §5, §6

Structure (SMILES): Cc1cc(S(=O)(=O)Nc2nncc(-c3ccc(C(F)(F)F)cc3)n2)c(SCc2cccc3ccccc23)cc1Cl [Compound 37, 4-Chloro-5-methyl-2-[(naphthalene-1-yl)methylthio]-N-[5-(4-trifluoromethylphenyl)-1,2,4-triazin-3-yl]-benzenesulfonamide]
- morphological changes (HeLa [1]): shrinkage of the cells, detachment from the surface
- morphological changes (HCT-116 [2]): shrinkage of the cells, detachment from the surface
- Sub-G1 cell population (HCT-116 [3]): 48.6% ± 13.5%
- IC50 (HeLa (cervical cancer)): 34 ± 2 µM
- IC50 (HeLa (cervical cancer); Homo sapiens, 72 h): 34 to 42 µM
- Sub-G1 cell population (HeLa [4]): 21% ± 3.4%
- effect on mitochondrial membrane potential (Δψm) (HCT-116 [5]): remarkably decreased Δψm
- increase of cell population with activated caspases [6]: 31%
- IC50 (HCT-116, HeLa and MCF-7): 47 µM
- effect on mitochondrial membrane potential (Δψm) (HeLa [7]): remarkably decreased Δψm
- IC50 (HCT-116 (colon cancer)): 36 ± 1 µM
- IC50 (HCT-116 (colon cancer); Homo sapiens, HCT-116, 72 h): 36 to 38 µM
